The text below walks through data of paper PMC4138078, “Chemically Modified Peptide Scaffolds Target the CFTR-Associated Ligand PDZ Domain” (PLoS ONE, 2014).

Where a name gives a salt, the structure may show the parent alone. Peptide text beside a SMILES is read from it. * marks the point of attachment. Benzoyl(4-Br) = O=C(c1ccc(Br)cc1)*; Benzoyl(4-F) = O=C(c1ccc(F)cc1)*; Tfa = O=C(C(F)(F)F)*

Holding throughout (format): binding
Assay [1] has as its target T1, CAL PDZ domain (CALP) (Homo sapiens, UniProt Q9HD26).
T1 construct: made in house
The experiment in a line: Isothermal titration calorimetry (ITC). Particulars: ITC value relative to FP value. The protocol:
ITC experiments were performed and analyzed in a manner similar to that described previously, [20]. Titrations were performed with a Nano ITC 2G (TA Instruments). In brief, for a typical titration, 100–320 µM CALP was loaded into the 943 µL sample cell, and 2–3 mM peptide placed in a 250 µL injector syringe. For [drawing 8] , titrations were performed with polyhistidine-tagged CALP. Peptide concentrations were adjusted based on the amount of protein, so the final ratio of peptide to protein ranged between 3∶1–4∶1. Each titration included an initial 1 or 2 µL injection followed by 5 or 10 µL injections performed at 180 s intervals, for a total of 25–50 injections. The stirring speed was 250 rpm, and experimental temperature was 25°C. Thermograms were analyzed using NanoAnalyze software (TA Instruments). Details are described in ref. [21].

The target of assay [2] is T1, CAL PDZ domain (CALP). The experiment in a line: Surface plasmon resonance (SPR), equilibrium analysis. Particulars: SPR value relative to FP value. How it is done: SPR experiments were performed on a Biacore X100 Plus (GE Healthcare Life Sciences), with CALP covalently immobilized on a CM5 sensor chip. […] Sensorgrams were analyzed using the Biacore evaluation software. Experiments were performed in duplicate or triplicate (n≥2). A detailed description is provided in ref. [21].

Assay [3] concerns the target T1, CAL PDZ domain (CALP). The experiment in a line: Fluorescence polarization (FP) competition/displacement assay. Particulars: for binding affinity stronger than iCAL36: FP displacement. How it is done: FP competition experiments were performed as previously described, [17].
For illustrative purposes, a logistic curve-fit is shown, but K I values and fractional reporter occupancy values were determined by least-squares fitting of the complete binding equation.

With `CC[C@H](C)[C@H](NC(=O)[C@H](CCCCNC(=O)C(F)(F)F)NC(=O)[C@H](CO)NC(=O)[C@@H](NC(=O)[C@@H]1CCCN1C(=O)[C@H](Cc1c[nH]c2ccccc12)NC(=O)[C@H](CCCNC(=N)N)NC(=O)[C@H](CO)NC(=O)[C@H](CC(N)=O)NC(=O)[C@H](C)N)[C@@H](C)O)C(=O)O` [Peptide C00007] (H-ANSRWPTSK(Tfa)I-OH), on CAL PDZ domain (CALP) [1], the “fold-deviation of K D from ITC from the value obtained by FP” value (“fold-deviation of K D from ITC” below) was “(2.4) fold”. The “fold-deviation of K D from SPR from the value obtained by FP” value (“fold-deviation of K D from SPR” below) at CAL PDZ domain (CALP) [2] is reported as “(1.6) fold”.
Turning to `CC[C@H](C)[C@H](NC(=O)[C@H](CCCCNC(=O)c1ccc(Br)cc1)NC(=O)[C@H](CO)NC(=O)[C@@H](NC(=O)[C@@H]1CCCN1C(=O)[C@H](Cc1c[nH]c2ccccc12)NC(=O)[C@H](CCCNC(=N)N)NC(=O)[C@H](CO)NC(=O)[C@H](CC(N)=O)NC(=O)[C@H](C)N)[C@@H](C)O)C(=O)O` [Peptide C00005] (H-ANSRWPTSK(Benzoyl(4-Br))I-OH), on CAL PDZ domain (CALP) [1], the “fold-deviation of K D from ITC” value is recorded as “(1.9) fold”. Moreover, the “binding affinity stronger than iCAL36” value at CAL PDZ domain (CALP) [3] was ~2 fold. In addition, at CAL PDZ domain (CALP) [2], the “fold-deviation of K D from SPR” value is “(1.8) fold”.
Take H-ANSRWPK(Ac)SII-OH [Peptide C00002]: at CAL PDZ domain (CALP) [1], the “fold-deviation of K D from ITC” value is “(0.5) fold”. Further, the “fold-deviation of K D from SPR” value on CAL PDZ domain (CALP) [2] was “(0.7) fold”.
With `CC[C@H](C)[C@H](NC(=O)[C@@H](NC(=O)[C@H](CO)NC(=O)[C@@H](NC(=O)[C@@H]1CCCN1C(=O)[C@H](Cc1c[nH]c2ccccc12)NC(=O)[C@H](CCCNC(=N)N)NC(=O)[C@H](CO)NC(=O)[C@H](CC(N)=O)NC(=O)[C@H](C)NC(C)=O)[C@@H](C)O)[C@@H](C)CC)C(=O)O` [Ac-iCAL36], on CAL PDZ domain (CALP) [3] (head-to-head FP displacement assays), the “change in binding affinity compared to iCAL36” value is “no significant change”.
On to `CC[C@H](C)[C@H](NC(=O)[C@@H](NC(=O)[C@H](CO)NC(=O)[C@@H](NC(=O)[C@@H]1CCCN1C(=O)[C@H](CCCCNC(C)=O)NC(=O)[C@H](CCCNC(=N)N)NC(=O)[C@H](CO)NC(=O)[C@H](CC(N)=O)NC(=O)[C@H](C)N)[C@@H](C)O)[C@@H](C)CC)C(=O)O` [Peptide C00004], for which the “fold-deviation of K D from SPR” value on CAL PDZ domain (CALP) [2] is on record as “(0.5) fold”.
Consider `CC[C@H](C)[C@H](NC(=O)[C@H](CCCCNC(=O)c1ccc(F)cc1)NC(=O)[C@H](CO)NC(=O)[C@@H](NC(=O)[C@@H]1CCCN1C(=O)[C@H](Cc1c[nH]c2ccccc12)NC(=O)[C@H](CCCNC(=N)N)NC(=O)[C@H](CO)NC(=O)[C@H](CC(N)=O)NC(=O)[C@H](C)N)[C@@H](C)O)C(=O)O` [Peptide C00006] (H-ANSRWPTSK(Benzoyl(4-F))I-OH), for which the “fold-deviation of K D from ITC” value on CAL PDZ domain (CALP) [1] is recorded as “(1.1) fold”. Further, the “binding affinity stronger than iCAL36” value at CAL PDZ domain (CALP) [3] is given as ~2 fold. Also, on CAL PDZ domain (CALP) [2], the “fold-deviation of K D from SPR” value is given as “(2.4) fold”.
For H-ANSRWPTSK(Ac)I-OH [Peptide C00001], the “fold-deviation of K D from ITC” value at CAL PDZ domain (CALP) [1] is “(1.8) fold”. The “fold-deviation of K D from SPR” value at CAL PDZ domain (CALP) [2] was “(2.7) fold”.
For `CC[C@H](C)[C@H](NC(=O)[C@@H](NC(=O)[C@H](CO)NC(=O)[C@@H](NC(=O)[C@H](CCCCNC(C)=O)NC(=O)[C@H](Cc1c[nH]c2ccccc12)NC(=O)[C@H](CCCNC(=N)N)NC(=O)[C@H](CO)NC(=O)[C@H](CC(N)=O)NC(=O)[C@H](C)N)[C@@H](C)O)[C@@H](C)CC)C(=O)O` [Peptide C00003] the same measures were “(1.5) fold” and “(2.0) fold”.
